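In this assay, cells in 96-well plates receive the compound at five concentrations for 48 hours. Endpoints are linearly interpolated between the surrounding concentrations. Definition used: TGI = concentration required for complete inhibition of growth.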
Tests used:
Assay in all cases: NCI-60 cell line screen, 48 h
[1] = tested on: NCI-H226 lung
[2] = tested on: EKVX NSCLC
[3] = tested on: HS 578T breast
[4] = tested on: MOLT-4 leukemia
[5] = tested on: SF-268 CNS
[6] = tested on: HT29 colon
[7] = tested on: SK-OV-3 ovarian
[8] = tested on: UO-31 renal
[9] = tested on: NCI-H522 lung
[10] = tested on: NCI/ADR-RES ovarian
[11] = tested on: A498 renal
[12] = tested on: PC-3 prostate
[13] = tested on: DU-145 prostate
[14] = tested on: NCI-H23 lung
[15] = tested on: T-47D breast
[16] = tested on: MALME-3M melanoma
[17] = tested on: CCRF-CEM leukemia
[18] = tested on: SF-539 CNS
[19] = tested on: SN12C renal
[20] = tested on: SNB-75 CNS
[21] = tested on: UACC-62 melanoma
[22] = tested on: HCT-116 colon
[23] = tested on: MDA-MB-435
[24] = tested on: HCT-15 colon
[25] = tested on: OVCAR-8 ovarian
[26] = tested on: SW-620 colon
[27] = tested on: BT-549 breast
[28] = tested on: MDA-MB-231 breast
[29] = tested on: COLO 205 colon
[30] = tested on: MCF7 breast
[31] = tested on: TK-10 renal
[32] = tested on: OVCAR-3 ovarian
[33] = tested on: SK-MEL-28 melanoma
[34] = tested on: K-562 leukemia
[35] = tested on: ACHN renal
[36] = tested on: OVCAR-4 ovarian
[37] = tested on: OVCAR-5 ovarian
[38] = tested on: 786-0 renal
[39] = tested on: U251 CNS
[40] = tested on: CAKI-1 renal
[41] = tested on: SF-295 CNS
[42] = tested on: HOP-62 NSCLC
[43] = tested on: UACC-257 melanoma
[44] = tested on: SK-MEL-2 melanoma
[45] = tested on: HL-60(TB) leukemia
[46] = tested on: LOX IMVI melanoma
[47] = tested on: IGROV1 ovarian
[48] = tested on: M14 melanoma
[49] = tested on: SK-MEL-5 melanoma
[50] = tested on: SNB-19 CNS
[51] = tested on: KM12 colon
[52] = tested on: HOP-92 NSCLC
[53] = tested on: RPMI-8226 leukemia
[54] = tested on: MDA-N
[55] = tested on: A549 NSCLC
[56] = tested on: SR leukemia
[57] = tested on: HCC-2998 colon
[58] = tested on: RXF 393 renal
[59] = tested on: NCI-H460 lung

CCCCOC(=O)C(NC(C(=O)OCCCC)c1cc(C(C)(C)C)c(O)c(C(C)(C)C)c1)c1cc(C(C)(C)C)c(O)c(C(C)(C)C)c1 (stereo not drawn)
TGI [1]: > 100 µM | TGI [2]: > 100 µM | TGI [3]: > 100 µM | TGI [4]: > 100 µM | TGI [5]: > 100 µM | TGI [6]: > 100 µM | TGI [7]: > 100 µM | TGI [8]: > 100 µM | TGI [9]: > 100 µM | TGI [10]: > 100 µM | TGI [11]: > 100 µM | TGI [12]: > 100 µM | TGI [13]: > 100 µM | TGI [14]: > 100 µM | TGI [15]: > 100 µM | TGI [16]: > 100 µM | TGI [17]: > 100 µM | TGI [18]: > 100 µM | TGI [19]: > 100 µM | TGI [20]: > 100 µM | TGI [21]: > 100 µM | TGI [22]: > 100 µM | TGI [23]: > 100 µM | TGI [24]: > 100 µM | TGI [25]: > 100 µM | TGI [26]: > 100 µM | TGI [27]: > 100 µM | TGI [28]: > 100 µM | TGI [29]: > 100 µM | TGI [30]: > 100 µM | TGI [31]: > 100 µM | TGI [32]: > 100 µM | TGI [33]: > 100 µM | TGI [34]: > 100 µM | TGI [35]: > 100 µM | TGI [36]: > 100 µM | TGI [37]: > 100 µM | TGI [38]: > 100 µM | TGI [39]: > 100 µM | TGI [40]: > 100 µM | TGI [41]: > 100 µM | TGI [42]: > 100 µM | TGI [43]: > 100 µM | TGI [44]: > 100 µM | TGI [45]: > 100 µM | TGI [46]: > 100 µM | TGI [47]: > 100 µM | TGI [48]: > 100 µM | TGI [49]: > 100 µM | TGI [50]: > 100 µM | TGI [51]: > 100 µM | TGI [52]: > 100 µM | TGI [53]: > 100 µM | TGI [54]: > 100 µM | TGI [55]: > 100 µM

NCCCN(CCCN(C(=O)Nc1ccccc1)c1ccccc1)C(=O)Nc1ccccc1
TGI [1]: > 100 µM | TGI [2]: > 100 µM | TGI [3]: > 100 µM | TGI [4]: > 100 µM | TGI [5]: > 100 µM | TGI [6]: > 100 µM | TGI [7]: > 100 µM | TGI [8]: 65.8 µM | TGI [9]: 43.1 µM | TGI [10]: > 100 µM | TGI [11]: > 100 µM | TGI [12]: > 100 µM | TGI [13]: > 100 µM | TGI [14]: > 100 µM | TGI [15]: 79.3 µM | TGI [16]: 38.9 µM | TGI [17]: > 100 µM | TGI [56]: > 100 µM | TGI [19]: > 100 µM | TGI [20]: 77.6 µM | TGI [21]: 58 µM | TGI [22]: > 100 µM | TGI [57]: 62.3 µM | TGI [24]: > 100 µM | TGI [25]: > 100 µM | TGI [26]: 52.3 µM | TGI [27]: > 100 µM | TGI [28]: > 100 µM | TGI [29]: > 100 µM | TGI [30]: > 100 µM | TGI [31]: > 100 µM | TGI [33]: 34.1 µM | TGI [34]: > 100 µM | TGI [35]: > 100 µM | TGI [37]: > 100 µM | TGI [38]: > 100 µM | TGI [39]: > 100 µM | TGI [41]: 58.3 µM | TGI [42]: 67.5 µM | TGI [43]: 43.1 µM | TGI [44]: 55.6 µM | TGI [45]: 66.1 µM | TGI [58]: 86.2 µM | TGI [46]: 56.6 µM | TGI [59]: 94.8 µM | TGI [47]: > 100 µM | TGI [48]: 44.8 µM | TGI [49]: 40.7 µM | TGI [50]: > 100 µM | TGI [52]: 92 µM | TGI [53]: 73 µM | TGI [54]: > 100 µM | TGI [55]: > 100 µM

Source: PubChem BioAssay (NCI)
